The values below come from patent publication US20120107854A1, “REAGENT FOR MEASUREMENT OF CHOLINESTERASE ACTIVITY” (NATIONAL INSTITUTE OF RADIOLOGICAL SCIENCES, priority 2009, published 2012).

In data set [1] the target is purified human acetylcholinesterase (Homo sapiens, UniProt P22303). The class given is biochemical. The conditions noted are these: for specificity for acetylcholinesterase: acetylcholinesterase versus butyrylcholinesterase hydrolysis; for reaction order of the hydrolysis rate (time dependence): at the substrate concentration, change with time showed good linearity; for reaction order of the hydrolysis rate (time dependence) / change in absorbance at 412 nm with time: FIG. 1; for substrate quality for acetylcholinesterase: hydrolysis rate lower than acetyl thiocholine and acetyl-δ methyl-thiocholine; for change in absorbance at 412 nm with time: in 120 minutes, acetylcholinesterase; for hydrolysis rate with Acetylcholinesterase (change in absorbance per minute): phosphate buffer 0.1 M pH 7.4, 0.1% Tween 20, absorbance at 412 nm, measured three times, average ± standard deviation. Here is the method:
(§1) To investigate the hydrolysis rate and specificity of each of (1a) and (2a), the hydrolysis rate in a solution of each of purified human acetylcholinesterase and purified human butyrylcholinesterase was measured by the Ellman method, and was compared with those of acetyl thiocholine and acetyl-[…]. To 3 ml of a solution of each enzyme whose concentration was adjusted with a phosphate buffer (0.1 M, pH 7.4) containing 0.1% of Tween 20, 0.1 ml of a solution (5 mM) of 5,5′-dithio-bis(2-nitrobenzoic acid) was added. To these mixtures, the substrates were respectively added in an amount of 0.02 ml (75 mM), and the absorbance (mAbs) at a wavelength of 412 nm was measured.
(§2) The values in the Table represent the changes in absorbance per minute measured three times in the form of average value±standard deviation.
The values represent the absorbance (Abs) measured three times in the form of average value±standard deviation.

Data set [2] is described as follows: Spontaneous hydrolysis rate in the buffer solution (Ellman method). It counts as physicochemical. The conditions noted are these: buffer solution without enzyme; absorbance at 412 nm; measured three times, average ± standard deviation.
The target of data set [3] is purified human butyrylcholinesterase (Homo sapiens, UniProt P06276). The data set is described as follows: Hydrolysis rate with purified human butyrylcholinesterase by the Ellman method. The class given is biochemical. Conditions: for hydrolysis rate with butyrylcholinesterase compared with spontaneous hydrolysis in the buffer solution: comparison of Table 1 values; for hydrolysis rate with Butyrylcholinesterase (change in absorbance per minute): phosphate buffer 0.1 M pH 7.4, 0.1% Tween 20, absorbance at 412 nm, measured three times, average ± standard deviation. The procedure:
as §1, §2

Sequence of purified human acetylcholinesterase (P22303 32-614): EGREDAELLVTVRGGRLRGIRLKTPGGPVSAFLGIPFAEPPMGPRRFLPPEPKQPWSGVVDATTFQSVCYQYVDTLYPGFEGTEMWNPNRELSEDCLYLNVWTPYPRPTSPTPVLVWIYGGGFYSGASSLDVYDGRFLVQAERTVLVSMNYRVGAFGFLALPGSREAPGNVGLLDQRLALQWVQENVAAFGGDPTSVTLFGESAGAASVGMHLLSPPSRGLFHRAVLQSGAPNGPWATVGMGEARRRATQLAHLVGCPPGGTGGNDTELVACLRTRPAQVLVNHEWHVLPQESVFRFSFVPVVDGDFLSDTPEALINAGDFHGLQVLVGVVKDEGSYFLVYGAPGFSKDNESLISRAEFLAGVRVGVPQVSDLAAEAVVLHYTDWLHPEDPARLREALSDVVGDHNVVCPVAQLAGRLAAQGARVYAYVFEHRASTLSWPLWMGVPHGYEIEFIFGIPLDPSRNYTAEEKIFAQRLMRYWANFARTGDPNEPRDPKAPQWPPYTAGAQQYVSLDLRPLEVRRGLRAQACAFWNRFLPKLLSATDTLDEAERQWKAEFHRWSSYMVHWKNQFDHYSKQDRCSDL
Sequence of purified human butyrylcholinesterase (P06276 29-602): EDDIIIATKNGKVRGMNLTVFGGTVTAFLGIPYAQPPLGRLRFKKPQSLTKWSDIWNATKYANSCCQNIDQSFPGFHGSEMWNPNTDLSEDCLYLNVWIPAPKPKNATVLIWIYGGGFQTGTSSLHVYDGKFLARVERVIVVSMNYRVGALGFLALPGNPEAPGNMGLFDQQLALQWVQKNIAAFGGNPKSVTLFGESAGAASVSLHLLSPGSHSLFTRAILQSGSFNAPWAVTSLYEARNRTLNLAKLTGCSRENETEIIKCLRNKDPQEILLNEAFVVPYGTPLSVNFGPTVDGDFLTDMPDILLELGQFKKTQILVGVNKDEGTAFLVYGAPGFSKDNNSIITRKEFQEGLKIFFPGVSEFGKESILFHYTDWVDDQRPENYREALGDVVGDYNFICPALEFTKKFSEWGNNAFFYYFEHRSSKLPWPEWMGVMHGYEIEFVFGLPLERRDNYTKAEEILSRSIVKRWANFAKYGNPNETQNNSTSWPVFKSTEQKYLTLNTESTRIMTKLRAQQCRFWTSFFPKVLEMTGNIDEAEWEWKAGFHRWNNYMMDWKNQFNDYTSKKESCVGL

In the case of `CC(=O)SCC1CCN(C)CC1` [Compound (1a), 1-methylpiperidin-4-ylmethyl acetyl sulfide], in data set [1], the specificity for acetylcholinesterase entry is “extremely highly specific”, the “reaction order of the hydrolysis rate (time dependence)” value was “consistent with the zero-order reaction”, the “substrate quality for acetylcholinesterase” value is listed as “good substrates for acetylcholinesterase” and the “change in absorbance at 412 nm with time” value is “approximately 0.4 Abs”. In data set [1], the “hydrolysis rate with Acetylcholinesterase (change in absorbance per minute)” value was 3.7 ± 0.098 ΔmAbs/minute. The “spontaneous hydrolysis rate (change in absorbance per minute)” value in data set [2] is 0.47 ± 0.0096 ΔmAbs/minute. In data set [3], the “hydrolysis rate with butyrylcholinesterase compared with spontaneous hydrolysis in the buffer solution” value is recorded as “did not show any significant difference” and the “hydrolysis rate with Butyrylcholinesterase (change in absorbance per minute)” value is reported as 0.47 ± 0.026 ΔmAbs/minute.
For the compound `CC(=O)SCC1CC[N+](C)(C)CC1` [Compound (2a), 1,1-dimethylpiperidin-4-ylmethyl acetyl sulfide], in data set [1], the specificity for acetylcholinesterase result is given as “extremely highly specific”, the “reaction order of the hydrolysis rate (time dependence)” value is on record as “consistent with the zero-order reaction”, the “substrate quality for acetylcholinesterase” value is “good substrates for acetylcholinesterase” and the “change in absorbance at 412 nm with time” value was “approximately 0.4 Abs”. The “hydrolysis rate with Acetylcholinesterase (change in absorbance per minute)” value in data set [1] was 3.1 ± 0.15 ΔmAbs/minute. Besides, the “spontaneous hydrolysis rate (change in absorbance per minute)” value in data set [2] is recorded as 0.13 ± 0.027 ΔmAbs/minute. Moreover, in data set [3], the “hydrolysis rate with butyrylcholinesterase compared with spontaneous hydrolysis in the buffer solution” value is recorded as “did not show any significant difference” and the “hydrolysis rate with Butyrylcholinesterase (change in absorbance per minute)” value was 0.15 ± 0.0077 ΔmAbs/minute.
`CC(=O)SC(C)C[N+](C)(C)C` (stereo not drawn) [Acetyl-β methyl-thiocholine, reference compound]: the “hydrolysis rate with Acetylcholinesterase (change in absorbance per minute)” value in data set [1] is recorded as 29 ± 0.24 ΔmAbs/minute. The “spontaneous hydrolysis rate (change in absorbance per minute)” value in data set [2] was 0.48 ± 0.020 ΔmAbs/minute. Further, in data set [3], the “hydrolysis rate with butyrylcholinesterase compared with spontaneous hydrolysis in the buffer solution” value is on record as “significantly higher” and the “hydrolysis rate with Butyrylcholinesterase (change in absorbance per minute)” value is recorded as 7.1 ± 0.22 ΔmAbs/minute.
